Drawing on PubChem BioAssay (NCI), this text covers TGI for nine compounds.

Structures are written as SMILES.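 1) Cells in 96-well plates. 2) Compound, 48 h, 5 concentrations. 3) Linear interpolation between surrounding doses. 4) Unreached endpoint = highest concentration. TGI is the concentration that stops growth completely.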

Common to all, as to test: NCI tumour cell line growth inhibition, 48 h
Assay [1] deals with OVCAR-4 ovarian.
Assay [2] relates to ACHN renal.
Assay [3] deals with SF-539 CNS.
Assay [4] has as its system NCI-H226 lung.
The subject of assay [5] is OVCAR-3 ovarian.
The test system of assay [6] is SK-OV-3 ovarian.
The test system of assay [7] is RPMI-8226 leukemia.
Assay [8] relates to NCI-H522 lung.
Assay [9] deals with UO-31 renal.
Assay [10] deals with SW-620 colon.
Assay [11] concerns MOLT-4 leukemia.
Assay [12] concerns NCI-H23 lung.
Assay [13] concerns PC-3 prostate.
Assay [14] has as its system HT29 colon.
For assay [15], the system named is UACC-62 melanoma.
Assay [16] concerns NCI/ADR-RES ovarian.
The subject of assay [17] is HOP-62 NSCLC.
Assay [18] relates to MDA-N.

With `COc1ccc(CCNC(=O)CCc2ccccc2CO)cc1OC`, the TGI in [1], in assay [2], in assay [3], in assay [4], in [5] and in assay [6] was over 100 µM throughout. For the same compound, the TGI in assay [7], in [8], in assay [9], in [10], in [11] and in assay [12] was over 100 µM throughout. The TGI in [13], in [14], in assay [15], in [16] and in assay [17] was over 100 µM in each case.

For the compound `O=[N+]([O-])C(=C(Nc1ccccc1)Nc1ccccc1)/C(Cl)=C(\Cl)Br`, the TGI in assay [1] is 27.3 µM; in assay [2], 25 µM; in assay [3] it was 46 µM; in assay [4] it was 14.4 µM; in assay [5] it was 19.4 µM; in [7], 18.8 µM. Also, the TGI in assay [8] was determined as 8.72 µM; in assay [9] it was 21.7 µM; in assay [10], 18.8 µM; in assay [11], 13.4 µM; in assay [12], 29.1 µM; in [13], 30.7 µM. Also, the TGI was found to be 29.7 µM in assay [14], 29.7 µM in assay [16] and 55.1 µM in [17].

Take `CC(=O)c1sc(Nc2ccc(Cl)c(Cl)c2)nc1C`: the TGI in assay [1], in assay [2], in assay [3], in [4], in assay [18] and in assay [5] was over 100 µM in each case. In addition, the TGI in assay [6] was over 100 µM; in [7], over 100 µM; in [9] it was over 100 µM; in assay [10] it was over 100 µM; in assay [11], 83.8 µM; in assay [12] it was over 100 µM. Moreover, the TGI in [14], in assay [15], in [16] and in assay [17] was over 100 µM throughout.

With `C/C(=N\Nc1nc2ccccc2o1)c1cc(C)ncn1`, the TGI in [1] is 27.5 µM; in assay [2], 29.3 µM; in [3] it was 5.77 µM; in [18], over 100 µM; in assay [5], over 54.7 µM; in assay [6], 2.5 µM. For the same compound, the TGI in [7] was over 100 µM; in [9] it was 0.311 µM; in assay [10], over 100 µM; in assay [11], 3.09 µM; in [12], over 43.7 µM; in [13] it was over 100 µM. The values for the TGI in [14], in assay [16] and in assay [17] were 14.8 µM, 0.0739 µM and over 35.3 µM, respectively.

For `O=C(Cn1c2ccc(Br)cc2c2nc3ccccc3nc21)N/N=C/c1ccccc1`, the TGI in [2] is over 100 µM; in assay [3], 53.6 µM; in assay [4], over 100 µM; in assay [5] it was over 100 µM; in assay [6] it was over 100 µM; in assay [9] it was over 100 µM. Also, the TGI in [10], in assay [12], in [13], in [14], in [15] and in assay [16] was over 100 µM in each case. The TGI in assay [17] came to 97.9 µM.

Consider `CC(=O)N/N=C1/CC[C@@]2(C)C(=CC[C@H]3C4CCC(C(C)CCCC(C)C)[C@@]4(C)CCC32)C1(C)C` (stereo partly drawn), for which the TGI in assay [1], in assay [2], in assay [4], in [5], in assay [6] and in assay [7] was over 100 µM in each case. For the same compound, the TGI in assay [8] is over 100 µM; in assay [9], over 100 µM; in [10], over 100 µM; in [11], 34.1 µM; in assay [12] it was over 100 µM; in assay [13], over 100 µM. The TGI in [14], in assay [15], in assay [16] and in assay [17] was over 100 µM throughout.

Turning to `CC(=O)C(=[N+]=[N-])C(=O)OCCOC(=O)C(=[N+]=[N-])C(C)=O`, the TGI in assay [2], in assay [3], in assay [4], in assay [18], in assay [5] and in assay [6] was over 1 µM each time. Besides, the TGI in assay [7], in assay [9], in assay [11], in [12], in assay [13] and in assay [14] was over 1 µM in each case. In addition, the TGI in assay [15] and in assay [17] was over 1 µM each time.

With `C[C@@H]1OC(=O)C[C@H]2CC(=O)N(CCC3CN(S(=O)(=O)C(F)(F)F)c4ccccc43)C[C@@H]21` (stereo partly drawn), the TGI in assay [1], in [2], in assay [5], in assay [6], in assay [7] and in assay [8] was over 100 µM in each case. Besides, the TGI in [9], in [10], in assay [11], in [12], in assay [13] and in assay [14] was over 100 µM in each case. The TGI in [15], in assay [16] and in [17] was over 100 µM in each case.

As to `CC1CN=C(NS(=O)(=O)c2cc(C(=O)Nc3ccc(F)cc3)c(Cl)cc2S)NN1` (stereo not drawn), the TGI in assay [1], in [2], in assay [3], in assay [4], in assay [5] and in assay [6] was over 100 µM each time. In addition, the TGI in [7] is over 100 µM; in [8] it was 94.2 µM; in [9], over 100 µM; in [10], over 100 µM; in [11], over 100 µM; in [12], over 100 µM. The TGI in assay [13], in assay [14], in assay [15], in [16] and in assay [17] was over 100 µM throughout.
